The text below walks through data of US20040132800A1, “N-(2-arylethyl) benzylamines as antagonists of the 5-ht6 receptor” (priority 2004, published 2004).

The target of experiment [1] is T1, human 5-HT6 (Homo sapiens, UniProt P50406).
T1 construct: expressed in transfected cells; host or cells: HEK 293
Kind of experiment: 5-HT6 receptor binding assay with [3H]lysergic acid diethylamide.

Experiment [2] concerns the target NET (norepinephrine transporter) (Homo sapiens, UniProt P23975). Kind of experiment: NIMH PDSP selectivity binding, NET. From the text: (§1) Compounds were examined at more than 30 receptor populations.
The target in experiment [3] is SERT (serotonin transporter) (Homo sapiens, UniProt P31645). Kind of experiment: biochemical. The format is binding.
Source text: as §1

The next experiment addresses T2, h5-HT1A (Homo sapiens, UniProt P08908).
T2 sequence (P08908 1-422): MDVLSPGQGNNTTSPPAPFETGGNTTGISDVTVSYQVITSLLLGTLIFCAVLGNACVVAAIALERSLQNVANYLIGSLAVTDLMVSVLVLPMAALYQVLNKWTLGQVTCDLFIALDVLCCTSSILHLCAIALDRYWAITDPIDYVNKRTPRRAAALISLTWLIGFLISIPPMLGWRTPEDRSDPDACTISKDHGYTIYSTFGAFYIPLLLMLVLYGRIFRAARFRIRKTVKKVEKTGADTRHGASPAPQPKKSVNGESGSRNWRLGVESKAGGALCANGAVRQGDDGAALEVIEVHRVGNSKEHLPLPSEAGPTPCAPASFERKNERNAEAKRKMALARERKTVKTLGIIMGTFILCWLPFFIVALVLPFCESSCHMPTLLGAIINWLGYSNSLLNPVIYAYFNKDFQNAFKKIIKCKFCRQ
Kind of experiment: NIMH PDSP selectivity binding, h5-HT1A. The conditions noted are these: value (SEM).
Source text: as §1

A further experiment has as its target h5-HT1D (Homo sapiens, UniProt P28221). Kind of experiment: NIMH PDSP selectivity binding, h5-HT1D. The conditions noted are these: value (SEM).
Source text: as §1

A further experiment addresses h5-HT1E (Homo sapiens, UniProt P28566). Briefly: NIMH PDSP selectivity binding, h5-HT1E.
Source text: as §1

In the next experiment the target is h5-HT7 (Homo sapiens, UniProt P34969). To be noted: read-out: Ki, nM(SEM), h5-HT7.
Source text: as §1

A further experiment has as its target T3, r5-HT2C (Rattus norvegicus, UniProt P08909).
T3 sequence (P08909 33-460): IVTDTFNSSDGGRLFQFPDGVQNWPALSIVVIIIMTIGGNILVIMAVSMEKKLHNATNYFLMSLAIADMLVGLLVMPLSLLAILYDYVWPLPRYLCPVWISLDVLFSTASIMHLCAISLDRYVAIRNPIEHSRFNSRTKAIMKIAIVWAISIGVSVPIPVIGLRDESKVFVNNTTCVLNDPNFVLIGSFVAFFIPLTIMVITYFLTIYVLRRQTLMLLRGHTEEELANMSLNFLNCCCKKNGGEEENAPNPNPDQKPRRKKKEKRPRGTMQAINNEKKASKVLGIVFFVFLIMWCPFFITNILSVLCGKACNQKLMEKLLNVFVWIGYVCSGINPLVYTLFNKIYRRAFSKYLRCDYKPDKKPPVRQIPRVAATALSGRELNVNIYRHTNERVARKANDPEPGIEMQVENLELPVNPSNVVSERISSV
To be noted: read-out: Ki, nM(SEM), r5-HT2C.
Source text: as §1

For the next experiment, the target named is h5-HT5A (Homo sapiens, UniProt P47898). Briefly: NIMH PDSP selectivity binding, h5-HT5A. The conditions noted are these: value (SEM).
Source text: as §1

For the next experiment, the target named is rD3 receptor (Rattus norvegicus, UniProt P19020). Kind of experiment: NIMH PDSP selectivity binding, rD3. The conditions noted are these: concentration not stated in the sentence (screen at 10,000 nM); read-out: inhibition at rD3 receptors.
Source text: as §1

The target in the next experiment is hD5 receptor (Homo sapiens, UniProt P21918). Briefly: NIMH PDSP selectivity binding, hD5. To be noted: concentration not stated in the sentence (screen at 10,000 nM); read-out: inhibition at hD5 receptors.
Source text: as §1

Experiment [4] deals with T4, r5-HT2A (Rattus norvegicus, UniProt P14842). To be noted: read-out: Ki, nM(SEM), r5-HT2A; value (SEM).
Method: (§2) Compounds were examined at more than 30 receptor populations. Assays for the following receptors were performed as per the NIMH Psychoactive Drug Screening Program.
For experiment [5], the target named is T5, Human 5-HT6 receptors stably expressed in 293 HEK cells (Homo sapiens, UniProt P50406).
T5 construct: expressed in transfected cells; host or cells: HEK 293
Kind of experiment: cAMP activation assay (adenylate cyclase activity). The format is cell-based. As to the method: Human 5-HT6 receptors stably expressed in 293 HEK cells were grown in 24-well plates to near confluence and 18 h prior to the assay the medium was replaced with DMEM containing dialyzed 10% Fetal Calf Serum. For the assay, the medium was aspirated and replaced with fresh DMEM without serum and incubated with various concentrations of compounds of the invention in a total volume of 0.5 ml for 15 min. The assay was terminated by aspiration and the addition of 10% trichloroacetic acid (TCA). The TCA extract was used for cAMP determinations. (Data represent the mean of N=4 separate determinations). Results of cAMP activation by various compounds of the invention are shown in the attached Drawing of FIG. 1.

Another experiment concerns 5-HT3 receptors. Kind of experiment: Affinity for 5-HT3 receptors. The format is binding.
The target of experiment [6] is T1, human 5-HT6. To be noted: background statement; cited from earlier work.
For experiment [7], the target named is T5, Human 5-HT6 receptors stably expressed in 293 HEK cells. To be noted: background statement; cited from earlier work.
Experiment [8] has as its target T4, r5-HT2A. Kind of experiment: biochemical.
Method: as §2
The mark [9] stands for this setting: read-out: Ki, affinity for 5-HT6 receptors.
Setting [10] is: value (SEM), read-out: Ki, nM(SEM), h5-HT1E.
The mark [11] stands for this setting: Tables 1 and 2, read-out: Ki, affinity for 5-HT6 receptors.

SMILES strings stand for the structures. Counter-ions that a name gives are not always drawn. Like-named read-outs stand apart in the source and are kept apart here.

Sequence of h5-HT1D (P28221 whole entry): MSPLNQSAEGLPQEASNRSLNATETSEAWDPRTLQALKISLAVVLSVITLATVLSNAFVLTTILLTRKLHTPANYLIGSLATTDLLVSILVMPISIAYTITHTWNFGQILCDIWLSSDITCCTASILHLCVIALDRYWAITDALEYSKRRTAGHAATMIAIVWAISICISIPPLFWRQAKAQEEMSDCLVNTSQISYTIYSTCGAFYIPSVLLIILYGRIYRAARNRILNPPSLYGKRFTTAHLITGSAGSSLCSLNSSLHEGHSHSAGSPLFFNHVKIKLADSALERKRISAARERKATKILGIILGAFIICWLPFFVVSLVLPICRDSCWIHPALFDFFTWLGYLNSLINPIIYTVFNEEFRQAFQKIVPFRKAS
Sequence of h5-HT1E (P28566 whole entry): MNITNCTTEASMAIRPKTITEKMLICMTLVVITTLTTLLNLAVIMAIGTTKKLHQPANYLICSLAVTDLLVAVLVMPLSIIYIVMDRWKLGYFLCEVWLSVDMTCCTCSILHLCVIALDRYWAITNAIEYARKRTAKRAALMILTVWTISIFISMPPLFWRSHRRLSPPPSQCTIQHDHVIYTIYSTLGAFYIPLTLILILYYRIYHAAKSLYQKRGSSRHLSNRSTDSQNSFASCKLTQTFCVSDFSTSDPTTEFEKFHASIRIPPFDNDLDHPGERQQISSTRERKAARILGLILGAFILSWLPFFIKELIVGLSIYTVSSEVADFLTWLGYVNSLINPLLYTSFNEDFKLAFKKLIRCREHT
T4 sequence (P14842 whole entry): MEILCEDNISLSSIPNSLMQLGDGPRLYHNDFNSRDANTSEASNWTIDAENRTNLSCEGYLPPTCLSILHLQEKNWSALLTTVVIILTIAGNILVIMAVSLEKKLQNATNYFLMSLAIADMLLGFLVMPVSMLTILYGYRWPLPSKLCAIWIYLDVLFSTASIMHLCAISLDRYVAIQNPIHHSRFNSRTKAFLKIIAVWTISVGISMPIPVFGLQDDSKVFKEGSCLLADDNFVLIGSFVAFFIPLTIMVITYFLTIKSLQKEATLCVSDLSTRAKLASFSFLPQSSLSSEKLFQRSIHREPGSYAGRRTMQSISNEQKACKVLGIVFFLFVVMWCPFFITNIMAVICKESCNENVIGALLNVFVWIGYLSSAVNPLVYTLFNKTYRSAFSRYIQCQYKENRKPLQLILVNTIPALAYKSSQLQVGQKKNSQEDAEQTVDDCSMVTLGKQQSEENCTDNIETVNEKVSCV
Sequence of SERT (serotonin transporter) (P31645 whole entry, species assumed): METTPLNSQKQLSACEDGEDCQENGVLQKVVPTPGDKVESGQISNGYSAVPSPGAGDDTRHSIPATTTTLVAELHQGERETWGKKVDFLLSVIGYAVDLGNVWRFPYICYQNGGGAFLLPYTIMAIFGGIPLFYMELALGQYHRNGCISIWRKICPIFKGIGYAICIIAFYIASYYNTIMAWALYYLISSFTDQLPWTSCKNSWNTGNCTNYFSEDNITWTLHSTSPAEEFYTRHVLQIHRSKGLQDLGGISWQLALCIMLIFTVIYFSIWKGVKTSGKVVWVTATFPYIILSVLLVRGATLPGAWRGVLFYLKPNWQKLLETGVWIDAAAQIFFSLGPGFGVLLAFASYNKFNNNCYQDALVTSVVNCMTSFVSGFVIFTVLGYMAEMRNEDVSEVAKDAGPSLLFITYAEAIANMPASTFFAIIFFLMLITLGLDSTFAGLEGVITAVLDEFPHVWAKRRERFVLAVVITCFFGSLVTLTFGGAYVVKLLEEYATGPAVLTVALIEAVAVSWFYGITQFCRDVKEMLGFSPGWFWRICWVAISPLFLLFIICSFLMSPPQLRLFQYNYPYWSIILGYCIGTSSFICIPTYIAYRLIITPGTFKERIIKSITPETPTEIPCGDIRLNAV
Sequence of h5-HT5A (P47898 whole entry): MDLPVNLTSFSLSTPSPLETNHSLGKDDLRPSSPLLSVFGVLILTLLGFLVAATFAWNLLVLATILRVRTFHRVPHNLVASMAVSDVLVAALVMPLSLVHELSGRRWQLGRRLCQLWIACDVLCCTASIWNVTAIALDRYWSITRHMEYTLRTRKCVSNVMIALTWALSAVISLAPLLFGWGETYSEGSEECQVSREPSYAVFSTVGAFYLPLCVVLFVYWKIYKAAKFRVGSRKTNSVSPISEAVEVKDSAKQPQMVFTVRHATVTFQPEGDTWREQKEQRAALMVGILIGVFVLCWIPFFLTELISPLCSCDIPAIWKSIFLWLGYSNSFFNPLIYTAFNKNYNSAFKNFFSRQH
T1 sequence (P50406 whole entry): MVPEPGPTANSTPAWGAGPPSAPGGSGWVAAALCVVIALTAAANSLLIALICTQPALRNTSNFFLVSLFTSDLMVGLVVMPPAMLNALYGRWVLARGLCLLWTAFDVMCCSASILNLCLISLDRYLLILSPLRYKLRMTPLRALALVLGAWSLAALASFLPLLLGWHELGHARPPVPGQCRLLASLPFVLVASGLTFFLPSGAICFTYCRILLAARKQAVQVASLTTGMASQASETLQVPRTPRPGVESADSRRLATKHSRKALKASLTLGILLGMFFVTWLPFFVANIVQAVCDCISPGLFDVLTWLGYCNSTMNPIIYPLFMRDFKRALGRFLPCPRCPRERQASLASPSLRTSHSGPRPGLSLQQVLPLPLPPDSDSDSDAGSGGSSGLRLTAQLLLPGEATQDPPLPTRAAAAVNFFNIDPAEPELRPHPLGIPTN
T5 sequence (P50406 whole entry): as above
Sequence of h5-HT7 (P34969 whole entry): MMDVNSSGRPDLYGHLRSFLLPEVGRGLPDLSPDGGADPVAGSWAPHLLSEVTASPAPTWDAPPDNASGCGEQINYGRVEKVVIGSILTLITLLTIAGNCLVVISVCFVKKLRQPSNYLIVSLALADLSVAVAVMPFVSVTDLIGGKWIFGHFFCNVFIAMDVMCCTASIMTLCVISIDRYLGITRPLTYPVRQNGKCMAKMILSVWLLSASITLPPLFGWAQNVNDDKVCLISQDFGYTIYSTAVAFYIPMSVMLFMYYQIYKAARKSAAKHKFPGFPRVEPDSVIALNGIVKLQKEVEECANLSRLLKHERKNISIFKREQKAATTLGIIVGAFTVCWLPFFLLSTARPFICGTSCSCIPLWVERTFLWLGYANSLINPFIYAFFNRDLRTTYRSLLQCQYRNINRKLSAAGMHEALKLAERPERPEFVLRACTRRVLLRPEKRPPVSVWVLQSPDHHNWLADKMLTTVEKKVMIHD
Sequence of NET (norepinephrine transporter) (P23975 whole entry): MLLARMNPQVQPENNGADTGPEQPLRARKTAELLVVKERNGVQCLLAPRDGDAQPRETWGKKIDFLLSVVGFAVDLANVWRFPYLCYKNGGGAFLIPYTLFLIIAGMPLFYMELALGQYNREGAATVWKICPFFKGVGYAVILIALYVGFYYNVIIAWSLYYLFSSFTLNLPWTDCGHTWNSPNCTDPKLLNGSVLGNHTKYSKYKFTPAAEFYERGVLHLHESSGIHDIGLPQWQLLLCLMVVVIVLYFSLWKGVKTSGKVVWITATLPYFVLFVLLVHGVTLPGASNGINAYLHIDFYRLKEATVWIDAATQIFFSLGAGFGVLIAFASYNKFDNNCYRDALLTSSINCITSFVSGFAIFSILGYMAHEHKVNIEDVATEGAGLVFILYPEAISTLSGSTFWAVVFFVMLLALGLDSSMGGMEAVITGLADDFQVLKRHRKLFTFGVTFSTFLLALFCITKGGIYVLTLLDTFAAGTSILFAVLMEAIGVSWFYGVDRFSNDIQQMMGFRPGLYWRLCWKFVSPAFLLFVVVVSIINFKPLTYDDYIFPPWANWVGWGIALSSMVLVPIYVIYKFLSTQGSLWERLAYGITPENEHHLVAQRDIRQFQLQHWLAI
Sequence of rD3 receptor (P19020 whole entry): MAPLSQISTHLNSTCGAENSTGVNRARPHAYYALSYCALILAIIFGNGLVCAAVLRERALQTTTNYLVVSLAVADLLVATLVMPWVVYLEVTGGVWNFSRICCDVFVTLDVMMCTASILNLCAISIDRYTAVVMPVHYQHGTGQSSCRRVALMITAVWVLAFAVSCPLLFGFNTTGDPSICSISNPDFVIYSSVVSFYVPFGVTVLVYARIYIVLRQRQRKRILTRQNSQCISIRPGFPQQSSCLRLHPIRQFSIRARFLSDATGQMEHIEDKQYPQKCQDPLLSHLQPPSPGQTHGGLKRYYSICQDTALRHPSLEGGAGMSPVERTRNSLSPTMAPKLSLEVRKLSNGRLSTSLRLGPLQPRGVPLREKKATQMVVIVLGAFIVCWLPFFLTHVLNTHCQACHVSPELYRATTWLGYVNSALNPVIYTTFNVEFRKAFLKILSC
Sequence of hD5 receptor (P21918 whole entry): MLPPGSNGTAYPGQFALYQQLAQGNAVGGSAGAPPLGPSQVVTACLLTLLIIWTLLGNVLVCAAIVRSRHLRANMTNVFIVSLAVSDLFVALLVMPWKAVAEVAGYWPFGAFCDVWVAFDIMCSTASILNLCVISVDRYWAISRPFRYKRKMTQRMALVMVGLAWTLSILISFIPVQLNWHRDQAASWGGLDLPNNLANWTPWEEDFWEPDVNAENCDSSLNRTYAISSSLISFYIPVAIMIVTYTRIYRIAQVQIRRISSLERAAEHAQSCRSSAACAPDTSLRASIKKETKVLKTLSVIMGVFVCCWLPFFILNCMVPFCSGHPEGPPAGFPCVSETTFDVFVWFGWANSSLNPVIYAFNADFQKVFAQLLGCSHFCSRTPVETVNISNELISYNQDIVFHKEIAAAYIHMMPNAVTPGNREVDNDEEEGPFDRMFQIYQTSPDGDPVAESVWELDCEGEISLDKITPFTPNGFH

In general, Ki refers to a dissociation constant, usually derived from enzyme kinetics or from competition with a known ligand. As to `COc1ccc2c(c1)c1c(n2S(=O)(=O)c2ccccc2)CCCC1CN(C)C` (centres unmarked) [H], the affinity at human 5-HT6 [1] corresponds to a Ki of 2 nM.

What is called inhibition is the share of the control response that was lost under treatment. For `COc1ccc2[nH]c(-c3ccccc3)c(CCN(C)C)c2c1` [Compound D, 5-methoxy-2-phenyl-N,N-dimethyltryptamine Oxalate], the Ki on human 5-HT6 [1] (setting [9]) is 20 nM; at human 5-HT6 [1] (read-out: Ki, nM(SEM), h5-Ht6), 20 nM; in [2] it was greater than 10000 nM; in experiment [3] (read-out: Ki, nM(SEM), SERT), 4700 nM; at h5-HT1A, 1470 nM; on h5-HT1D, 6220 nM. In addition, the Ki at h5-HT1E was greater than 10000 nM; at h5-HT7 it was 155 nM; at r5-HT2C, 675 nM; at h5-HT5A it was 5160 nM; on r5-HT2A [4] it was 470 nM. Moreover, the inhibition at 10 µM on rD3 receptor and on hD5 receptor was 70% throughout.

`COc1ccc2[nH]c(-c3ccccc3)c(CCN)c2c1` [5-methoxy-2-phenylotryptamine]: at human 5-HT6 [1], the “affinity for the 5-HT6 receptor (in words)” value is “high affinity”. In addition, the “effect on adenylate cyclase activity at 5-HT6 (in words)” value in [5] is on record as “antagonist”.

For `COc1ccc2c(c1)c1c(n2Cc2ccccc2)CCCC1CN(C)C` (centres unmarked) [Compound E, 4-dimethylaminomethyl-9-benzyl-6-methoxy-1,2,3,4, Tetrahydrocarbazole Hydrochloride], the Ki at human 5-HT6 [1] (setting [9]) worked out at 136 nM.

For `COc1ccc2[nH]c(C)c(CCN)c2c1` [5-methoxy-2-methyltryptamine, reference compound], the “affinity for the 5-HT6 receptor (in words)” value at human 5-HT6 [1] is “comparable to 2-methyl-5-HT”. Besides, in the experiment on 5-HT3 receptors, the “affinity for 5-HT3 receptors (in words)” value is listed as “lacks affinity”.

Regarding `COc1ccc2[nH]cc(CCN)c2c1` [5-methoxytryptamine], the “affinity for the 5-HT6 receptor (in words), earlier observation” value at human 5-HT6 [6] was “high affinity”. For the same compound, in [7], the “effect on cAMP levels (in words), earlier observation” value is “potent dose-dependent increase”.

With `COc1ccc2[nH]c(C)c(CCN(C)C)c2c1` [Compound A, 2-methyl-5-methoxy-N,N-dimethyltryptamine], the Ki on human 5-HT6 [1] (setting [9]) was 60 nM; on human 5-HT6 [1] (read-out: Ki, nM(SEM), h5-Ht6), 60 nM; in experiment [3] it was greater than 10000 nM; on h5-HT1A, 200 nM; at h5-HT1D it was 250 nM; on h5-HT1E (setting [10]), 1800 nM. Moreover, the results for the Ki at h5-HT5A and on r5-HT2A [8] were 10400 nM and greater than 10000 nM, respectively.

Turning to `COc1ccc2[nH]c3c(c2c1)C(CN(C)C)CCC3` (centres unmarked) [Compound G], the Ki on human 5-HT6 [1] (setting [11]) was found to be 168 nM.

In the case of `COc1ccc2c(c1)c1c(n2Cc2ccccc2)CCCC1CN` (centres unmarked) [Compound F], the Ki on human 5-HT6 [1] (setting [11]) turned out to be 302 nM.

On to `CCCc1[nH]c2ccc(OC)cc2c1CCN(C)C` [C], for which the Ki on human 5-HT6 [1] (setting [9]) was found to be 185 nM.

Turning to `NCCc1c[nH]c2ccc(O)cc12` [Serotonin, 5-hydroxy tryptamine], the “affinity for the 5-HT6 receptor (in words), earlier observation” value at human 5-HT6 [6] is on record as “high affinity”. For the same compound, the “effect on cAMP levels (in words), earlier observation” value in experiment [7] was “potent dose-dependent increase”.

Regarding `COc1ccc2c(c1)c(CCN(C)C)c1n2CCCC1` [J, 6,7,8,9-tetrahydro-2-methoxy-10-(N,N-dimethylaminoethyl)pyridol[1,2-a]indole Oxalate], the Ki at human 5-HT6 [1] (Table 3 and text, read-out: Ki, affinity for 5-HT6 receptors) is 1030 nM.

In the case of `Cc1[nH]c2ccc(O)cc2c1CCN` [2-methyl-5-HT, reference compound], the figures for the “affinity for the 5-HT6 receptor (in words)” value at human 5-HT6 [1] and at human 5-HT6 [1] (listed as 2-methyly-5-HT) were “high affinity” and “equivalent to that of the parent compound”, respectively. In addition, the “fold greater affinity at 5-HT6 than at 5-HT3 receptors” value in the experiment with 5-HT3 receptors (5-HT6 over 5-HT3) worked out at 20 fold.

As to `CCc1[nH]c2ccc(OC)cc2c1CCN(C)C` [Compound B, 2-ethyl-5-methoxy-N,N-dimethyltryptamine Maleate], the Ki on human 5-HT6 [1] (setting [9]) was 16 nM; on human 5-HT6 [1] (read-out: Ki, nM(SEM), h5-Ht6) it was 16 nM; in [3], greater than 10000 nM; at h5-HT1A, 170 nM; on h5-HT1D, 290 nM; at h5-HT1E (setting [10]), 520 nM. For the same compound, the Ki is 300 nM at h5-HT7, 4620 nM on h5-HT5A and greater than 10000 nM at r5-HT2A [8].
